Drawing on patent publication US20240158446A1, “CYCLIC COMPOUND HAVING SELECTIVE INHIBITORY ACTION ON KRAS OVER HRAS AND NRAS” (CHUGAI SEIYAKU KABUSHIKI KAISHA, priority 2021, published 2024), this text covers Kd for 9 compounds.

*1 amine or outer side, *2 acyl side, *3 side chain or, on linkers, in order; H or OH if unused. Where a SMILES comes first, the peptide text is derived from it. Bridges are numbered along the chain shown (N, C = ends). [ ]: non-standard residue; d: D form. The star is where a group is joined. hPhe(3-Cl-4-CF3) = N[C@@H](CCc1ccc(C(F)(F)F)c(Cl)c1)C(=O)O; X52 = CCCN([C@@H](Cc1ccc(OC(F)(F)F)cc1)C(=O)[*:2])[*:1]; NPrPhe(4-CF3) = CCCN[C@@H](Cc1ccc(C(F)(F)F)cc1)C(=O)O; X53 = C#CCN([C@@H](Cc1ccc(C)cc1)C(=O)[*:2])[*:1]; NMeGly(cPent) = CN[C@H](C(=O)O)C1CCCC1; Pro(4S-Me) = C[C@@H]1CN[C@H](C(=O)O)C1; cisHyp = O=C(O)[C@@H]1C[C@H](O)CN1; Hyp = O=C(O)[C@@H]1C[C@@H](O)CN1; NMeD = CN[C@@H](CC(=O)O)C(=O)O; NMeL = CN[C@@H](CC(C)C)C(=O)O; Morpholide = C1CN(*)CCO1; NMeA = CN[C@@H](C)C(=O)O; Ac5c = NC1(C(=O)O)CCCC1; Aze = O=C(O)[C@@H]1CCN1; Ethyl(2,2-F2) = FC(F)C*; Ac4c = NC1(C(=O)O)CCC1; Sar = CNCC(=O)O

The target in one test is GDP-bound KRAS wild-type protein (Homo sapiens, UniProt P01116). As to the kind of experiment: Binding to KRAS by surface plasmon resonance (SPR), Single Cycle Kinetics. The following applies: SPR Single Cycle Kinetics, GDP-bound KRAS wild-type protein, 1:1 binding model; read-out: KRAS KD.
Chain of GDP-bound KRAS wild-type protein (P01116 whole entry): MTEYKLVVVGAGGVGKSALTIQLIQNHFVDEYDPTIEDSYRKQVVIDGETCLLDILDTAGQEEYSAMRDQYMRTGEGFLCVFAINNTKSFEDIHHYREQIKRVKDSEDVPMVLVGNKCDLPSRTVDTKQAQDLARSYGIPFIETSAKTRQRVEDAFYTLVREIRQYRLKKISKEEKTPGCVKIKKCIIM
Turning to `C#CCN1C(=O)[C@@H]2CCN2C(=O)[C@H](C)N(C)C(=O)[C@H]([C@@H](C)CC)NC(=O)[C@H](CC(C)C)N(C)C(=O)C[C@@H](C(=O)N2CCOCC2)N(C)C(=O)[C@H](C2CCCC2)N(C)C(=O)C2(CCCC2)NC(=O)[C@@H]2CCCN2C(=O)[C@H](CCc2ccc(C(F)(F)F)c(Cl)c2)NC(=O)CN(C)C(=O)[C@@H]1Cc1ccc(C)cc1` [PP0090] ([NMeL]I[NMeA][Aze][X53][Sar][hPhe(3-Cl-4-CF3)]P[Ac5c][NMeGly(cPent)][NMeD]-Morpholide; lactam N-11), the Kd (as a rule, the concentration at which binding is half-saturated) came out at 0.083 nM.

Take `CCCN1C(=O)[C@@H]2CCN2C(=O)[C@H](C)N(C)C(=O)[C@H]([C@@H](C)CC)NC(=O)[C@H](CC(C)C)N(C)C(=O)C[C@@H](C(=O)N2CCOCC2)N(C)C(=O)[C@H](C2CCCC2)N(C)C(=O)C2(CCCC2)NC(=O)[C@@H]2C[C@H](C)CN2C(=O)[C@H](CCc2ccc(C(F)(F)F)c(Cl)c2)NC(=O)CN(C)C(=O)[C@@H]1Cc1ccc(C(F)(F)F)cc1` [PP0455] ([NMeL]I[NMeA][Aze][NPrPhe(4-CF3)][Sar][hPhe(3-Cl-4-CF3)][Pro(4S-Me)][Ac5c][NMeGly(cPent)][NMeD]-Morpholide; lactam N-11): the Kd was found to be 0.18 nM.

Turning to `CCCN1C(=O)CN(C)C(=O)CN(C)C(=O)[C@H]([C@@H](C)CC)NC(=O)[C@H](CC(C)C)N(C)C(=O)C[C@@H](C(=O)N2CCOCC2)N(C)C(=O)[C@H](C2CCCC2)N(C)C(=O)C2(CCCC2)NC(=O)[C@@H]2C[C@H](OCC(F)F)CN2C(=O)[C@H](CCc2ccc(C(F)(F)F)c(Cl)c2)NC(=O)CN(C)C(=O)[C@@H]1Cc1ccc(C(F)(F)F)cc1` [PP0245] ([NMeL]I[Sar][Sar][NPrPhe(4-CF3)][Sar][hPhe(3-Cl-4-CF3)][cisHyp](Ethyl(2,2-F2))[Ac5c][NMeGly(cPent)][NMeD]-Morpholide; lactam N-11), the equilibrium dissociation constant (Kd) was found to be 0.37 nM.

For `CCCN1C(=O)[C@@H]2CCN2C(=O)[C@H](C)N(C)C(=O)[C@H]([C@@H](C)CC)NC(=O)[C@H](CC(C)C)N(C)C(=O)C[C@@H](C(=O)N(C)C)N(C)C(=O)[C@H](C2CCCC2)N(C)C(=O)C2(CCC2)NC(=O)[C@@H]2C[C@@H](OCC)CN2C(=O)[C@H](CCc2ccc(C(F)(F)F)c(Cl)c2)NC(=O)CN(C)C(=O)[C@@H]1Cc1ccc(C(F)(F)F)cc1` [PP0439] ([NMeL]I[NMeA][Aze][NPrPhe(4-CF3)][Sar][hPhe(3-Cl-4-CF3)][Hyp](Et)[Ac4c][NMeGly(cPent)][NMeD]-NMe2; lactam N-11), the Kd stood at 0.021 nM.

`CC[C@H](C)[C@@H]1NC(=O)[C@H](CC(C)C)N(C)C(=O)C[C@@H](C(=O)N2CCOCC2)N(C)C(=O)[C@H](C2CCCC2)NC(=O)C2(CCCC2)NC(=O)[C@@H]2CCCN2C(=O)[C@H](CCc2cc(F)c(C(F)(F)F)c(F)c2)NC(=O)CN(C)C(=O)[C@H](Cc2ccc(C(F)(F)F)cc2)N2CCCCC[C@@H](C2=O)N(C)C(=O)CN(C)C1=O` [PP0478]: the Kd stood at 400 nM.

`CCCN1C(=O)[C@@H]2CCN2C(=O)[C@H](C)N(C)C(=O)[C@H]([C@@H](C)CC)NC(=O)[C@H](CC(C)C)N(C)C(=O)C[C@@H](C(=O)N2CCOCC2)N(C)C(=O)[C@H](C2CCCC2)N(C)C(=O)C2(CCCC2)NC(=O)[C@@H]2CCCN2C(=O)[C@H](CCc2ccc(C(F)(F)F)c(Cl)c2)NC(=O)CN(C)C(=O)[C@@H]1Cc1ccc(OC(F)(F)F)cc1` [PP0136] ([NMeL]I[NMeA][Aze][X52][Sar][hPhe(3-Cl-4-CF3)]P[Ac5c][NMeGly(cPent)][NMeD]-Morpholide; lactam N-11): the Kd was 1.3 nM.

The same test, now with this note: SPR, Single Cycle Kinetics, 1:1 binding model; GDP-bound KRAS wild-type protein; read-out: KRAS KD.
Turning to `CCO[C@@H]1C[C@H]2C(=O)NC3(CCC3)C(=O)N(C)[C@@H](C(CC)CC)C(=O)N(C)[C@H](C)CC(=O)N(C)[C@@H](CC3CCCC3)C(=O)N[C@@H]([C@@H](C)CC)C(=O)N(C)CC(=O)N(C)[C@H]3C/C=C\CCN(C3=O)[C@@H](Cc3ccc(F)cc3)C(=O)N(C)CC(=O)N[C@@H](CCc3cc(F)c(C(F)(F)F)c(F)c3)C(=O)N2C1` [PP1523], the equilibrium dissociation constant (Kd) was 4.1 nM.

The test is the same for the next values; noted with them: SPR, Single Cycle Kinetics, GDP-bound KRAS wild-type protein; read-out: KRAS KD.
Take `CCO[C@@H]1C[C@H]2C(=O)NC3(CCC3)C(=O)N(C)[C@@H](C3CCCC3)C(=O)N(C)[C@H](C(=O)N3CCCC3)CC(=O)N(C)[C@H]3CCCCC/C=C/c4ccc(cc4)C[C@@H](C(=O)N(C)CC(=O)N[C@@H](CCc4ccc(Cl)c(Cl)c4)C(=O)N2C1)N1CC/C=C\C[C@@H](C1=O)N(C)C(=O)CN(C)C(=O)[C@H]([C@@H](C)CC)NC3=O` [PP3049]: the Kd was found to be 0.2 nM.

For the compound `CCO[C@@H]1C[C@H]2C(=O)NC3(CCC3)C(=O)N(C)[C@@H](C(CC)CC)C(=O)N(C)[C@H](C(=O)N3CCCCC3)CC(=O)N(C)[C@H]3CCCCC/C=C/c4ccc(cc4)C[C@@H](C(=O)N(C)CC(=O)N[C@@H](CCc4ccc(Cl)c(Cl)c4)C(=O)N2C1)N1CC/C=C\C[C@@H](C1=O)N(C)C(=O)CN(C)C(=O)[C@H]([C@@H](C)CC)NC3=O` [PP3051], the Kd worked out at 0.75 nM.
